# Patent US7745574B2, “Compounds that regulate apoptosis” (The Burnham Institute, priority 2005, dated 2010)
# [ ]: non-standard residue; d: D form. Ahx = NCCCCCC(=O)O
# How the values were obtained:
# Bcl-2 [1] = biological target: T1, Bcl-2 (Homo sapiens, UniProt P10415); assay: Co-immunoprecipitation with Bcl-2 in HEK293T cells; assay type: binding; design: expressed in transfected cells; host or cells: HEK293T; settings: peptide added
# Description: Nur77 peptide binds anti-apoptotic Bcl-2 family members. Nur77-peptide binds Bcl-B, Bfl-1, and Bcl-2, but not Mcl-1 and Bcl-xL. […] The expression vector for the GFP-Nur77/489-497 fusion was transfected into HEK293T cells together with or without the indicated expression vector for myc-tagged Bcl-2 family member. Cell lysates were prepared and analyzed for interaction of Nur77/489-497 with Bcl-2 family members by co-immunoprecipitation assay using anti-Myc antibody. Immunoprecipitates were then separated on SDS/PAGE and immunoblotted using anti-GFP antibody. […] Nur77/Bcl-2 interaction assays—Reporter gene assays using NurRE-tk-CAT in CV-1 cells, and GST pull-down assay were described previously (Li, et al. 2000 Science 289:1159-1164). For the mammalian two-hybrid assays, CV-1 cells were co-transfected with pcDNA-Gal4TAD-Nur77 or pcDNA-Gal4TAD-Nur77/ΔDBD and pcDNA-Gal4 DBD-Bcl-2/ΔTM along with a luciferase reporter gene driven by four copies of the Gal-4-binding site. The cells were harvested and reporter gene activity was measured. For Co-IP assays, HEK293T cells were transiently transfected with various expression plasmids using a modified calcium phosphate precipitation method (Wu et al, 1997) in the presence of caspase inhibitors (zVAD-fmk) to prevent degradation of Nur77 protein due to apoptosis. Cells were suspended in lysis buffer (50 mM Tris-HCl, PH7.4; 150 mM NaCl; 20 mM EDTA; 1% NP-40; 1 mM PMSF; 50 μg/ml Leupeptin; […]; 0.1 mM Na3VO4; and 1 mM DTT). Cells extracts were cleared by incubation with the Protein A/G plus Agarose beads (Santa Cruz) and then incubated with appropriate antibody and 30 μl of Protein A or G plus Agarose beads overnight at 4° C. […] Immunoreactive products were detected by chemiluminescence with an enhanced chemiluminescence system (ECL) (Amersham).
# Bcl-2 [2] = biological target: T1, Bcl-2; assay: Bcl-2 conformational change, anti-Bcl-2/BH3 antibody staining of HEK293T cells transfected with Bcl-2; assay type: cell-based; design: expressed in transfected cells; host or cells: HEK293T; settings: flow cytometry
# Description: Such a Bcl-2 conformation is recognized by an anti-Bcl-2 antibody raised against the Bcl-2 BH3 domain. To determine whether NuBCP-9 induced a Bcl-2 conformational change, flow cytometric assays were conducted which HEK293T cells transfected with Bcl-2 were exposed to NuBCPs and subsequently stained with the anti-Bcl-2/BH3 antibody.
# [3] = Induction of apoptosis by Nur77 peptides, cell line not stated; assay type: cell-based
# Description: Apoptosis assays—For nuclear morphological change analysis, cells were trypsinized, washed with PBS, fixed with 3.7% paraformaldehyde, and stained with DAPI (4,6-diamidino-2-phenylindole) (50 μg/ml) to visualize the nuclei by UV-microscopy. The percentages of apoptotic cells were determined by counting 300 GFP-positive cells, scoring cells having nuclear fragmentation and/or chromatin condensation.
# H460 lung cancer cells = assay: Apoptosis in H460 lung cancer cells; assay type: cell-based; settings: alanine scan, H460 lung cancer cells
# T1 sequence (P10415 whole entry, the tested form may be a part): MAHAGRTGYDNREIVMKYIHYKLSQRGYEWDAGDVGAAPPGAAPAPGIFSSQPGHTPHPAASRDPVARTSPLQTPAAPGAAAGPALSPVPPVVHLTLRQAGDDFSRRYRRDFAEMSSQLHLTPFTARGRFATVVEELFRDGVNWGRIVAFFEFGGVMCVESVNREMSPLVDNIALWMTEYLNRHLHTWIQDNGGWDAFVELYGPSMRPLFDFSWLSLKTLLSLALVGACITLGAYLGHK
Substance,induction of apoptosis [3],apoptotic effect of alanine-substituted Nur77-9 (H460 lung cancer cells),other results
"Smac-peptide-r8: Smac peptide conjugated with r8, apoptosis-inducing comparison peptide (Ac-AVPIAQKC[Ahx][dR][dR][dR][dR][dR][dR][dR][dR]-NH2; also: Cys thiol joined to chloroacetyl-Ahx by thioether) [reference compound]",–,–,inhibition of co-precipitation of GFP-Nur77/489-497 with Bcl-2 (Bcl-2 [1]): not; Bcl-2 immunofluorescence by anti-Bcl-2/BH3 antibody (Bcl-2 [2]): did not show any Bcl-2 immunofluorescence
acetyl------------FAALSALVLGXrrrrrrrr-amide (Ac-FAALSALVLG[Ahx][dR][dR][dR][dR][dR][dR][dR][dR]-NH2; SMILES CC(=O)N[C@@H](Cc1ccccc1)C(=O)N[C@@H](C)C(=O)N[C@@H](C)C(=O)N[C@@H](CC(C)C)C(=O)N[C@@H](CO)C(=O)N[C@@H](C)C(=O)N[C@@H](CC(C)C)C(=O)N[C@H](C(=O)N[C@@H](CC(C)C)C(=O)NCC(=O)NCCCCCC(=O)N[C@H](CCCNC(=N)N)C(=O)N[C@H](CCCNC(=N)N)C(=O)N[C@H](CCCNC(=N)N)C(=O)N[C@H](CCCNC(=N)N)C(=O)N[C@H](CCCNC(=N)N)C(=O)N[C@H](CCCNC(=N)N)C(=O)N[C@H](CCCNC(=N)N)C(=O)N[C@H](CCCNC(=N)N)C(N)=O)C(C)C) [SEQ ID NO: 17],apoptotic,–,–
acetyl------------FGDWIDSILGXrrrrrrrr-amide (Ac-FGDWIDSILG[Ahx][dR][dR][dR][dR][dR][dR][dR][dR]-NH2; SMILES CC[C@H](C)[C@H](NC(=O)[C@H](CO)NC(=O)[C@H](CC(=O)O)NC(=O)[C@@H](NC(=O)[C@H](Cc1c[nH]c2ccccc12)NC(=O)[C@H](CC(=O)O)NC(=O)CNC(=O)[C@H](Cc1ccccc1)NC(C)=O)[C@@H](C)CC)C(=O)N[C@@H](CC(C)C)C(=O)NCC(=O)NCCCCCC(=O)N[C@H](CCCNC(=N)N)C(=O)N[C@H](CCCNC(=N)N)C(=O)N[C@H](CCCNC(=N)N)C(=O)N[C@H](CCCNC(=N)N)C(=O)N[C@H](CCCNC(=N)N)C(=O)N[C@H](CCCNC(=N)N)C(=O)N[C@H](CCCNC(=N)N)C(=O)N[C@H](CCCNC(=N)N)C(N)=O) [SEQ ID NO: 16],apoptotic,–,–
acetyl------------FYLKLEDLVGXrrrrrrrr-amide (Ac-FYLKLEDLVG[Ahx][dR][dR][dR][dR][dR][dR][dR][dR]-NH2; SMILES CC(=O)N[C@@H](Cc1ccccc1)C(=O)N[C@@H](Cc1ccc(O)cc1)C(=O)N[C@@H](CC(C)C)C(=O)N[C@@H](CCCCN)C(=O)N[C@@H](CC(C)C)C(=O)N[C@@H](CCC(=O)O)C(=O)N[C@@H](CC(=O)O)C(=O)N[C@@H](CC(C)C)C(=O)N[C@H](C(=O)NCC(=O)NCCCCCC(=O)N[C@H](CCCNC(=N)N)C(=O)N[C@H](CCCNC(=N)N)C(=O)N[C@H](CCCNC(=N)N)C(=O)N[C@H](CCCNC(=N)N)C(=O)N[C@H](CCCNC(=N)N)C(=O)N[C@H](CCCNC(=N)N)C(=O)N[C@H](CCCNC(=N)N)C(=O)N[C@H](CCCNC(=N)N)C(N)=O)C(C)C) [SEQ ID NO: 18],apoptotic,–,–
acetyl------------LLSHLSRSFGXrrrrrrrr-amide (Ac-LLSHLSRSFG[Ahx][dR][dR][dR][dR][dR][dR][dR][dR]-NH2; not fully specified; printed as acetyl------------LLSHLSRSFGXrrrrrrrr-amide) [Nur77/1 (inverso)],apoptotic,–,–
acetyl------------llshlsrsfGXrrrrrrrr-amide (Ac-[dL][dL][dS][dH][dL][dS][dR][dS][dF]G[Ahx][dR][dR][dR][dR][dR][dR][dR][dR]-NH2; SMILES CC(=O)N[C@H](CC(C)C)C(=O)N[C@H](CC(C)C)C(=O)N[C@H](CO)C(=O)N[C@H](Cc1c[nH]cn1)C(=O)N[C@H](CC(C)C)C(=O)N[C@H](CO)C(=O)N[C@H](CCCNC(=N)N)C(=O)N[C@H](CO)C(=O)N[C@H](Cc1ccccc1)C(=O)NCC(=O)NCCCCCC(=O)N[C@H](CCCNC(=N)N)C(=O)N[C@H](CCCNC(=N)N)C(=O)N[C@H](CCCNC(=N)N)C(=O)N[C@H](CCCNC(=N)N)C(=O)N[C@H](CCCNC(=N)N)C(=O)N[C@H](CCCNC(=N)N)C(=O)N[C@H](CCCNC(=N)N)C(=O)N[C@H](CCCNC(=N)N)C(N)=O) [Nur77/1(retro-inverso)],apoptotic,–,–
acetyl---F——L_LLGXrrrrrrrr-amide (Ac-FLLLG[Ahx][dR][dR][dR][dR][dR][dR][dR][dR]-NH2; SMILES CC(=O)N[C@@H](Cc1ccccc1)C(=O)N[C@@H](CC(C)C)C(=O)N[C@@H](CC(C)C)C(=O)N[C@@H](CC(C)C)C(=O)NCC(=O)NCCCCCC(=O)N[C@H](CCCNC(=N)N)C(=O)N[C@H](CCCNC(=N)N)C(=O)N[C@H](CCCNC(=N)N)C(=O)N[C@H](CCCNC(=N)N)C(=O)N[C@H](CCCNC(=N)N)C(=O)N[C@H](CCCNC(=N)N)C(=O)N[C@H](CCCNC(=N)N)C(=O)N[C@H](CCCNC(=N)N)C(N)=O) [SEQ ID NO: 40],apoptotic,–,–
acetyl-ASRSLHSLLGXmmrrr-amide [SEQ ID NO: 61],–,largely impaired,–
acetyl-FSRSAHSLLGXrrrrrrrr-amide (Ac-FSRSAHSLLG[Ahx][dR][dR][dR][dR][dR][dR][dR][dR]-NH2; SMILES CC(=O)N[C@@H](Cc1ccccc1)C(=O)N[C@@H](CO)C(=O)N[C@@H](CCCNC(=N)N)C(=O)N[C@@H](CO)C(=O)N[C@@H](C)C(=O)N[C@@H](Cc1c[nH]cn1)C(=O)N[C@@H](CO)C(=O)N[C@@H](CC(C)C)C(=O)N[C@@H](CC(C)C)C(=O)NCC(=O)NCCCCCC(=O)N[C@H](CCCNC(=N)N)C(=O)N[C@H](CCCNC(=N)N)C(=O)N[C@H](CCCNC(=N)N)C(=O)N[C@H](CCCNC(=N)N)C(=O)N[C@H](CCCNC(=N)N)C(=O)N[C@H](CCCNC(=N)N)C(=O)N[C@H](CCCNC(=N)N)C(=O)N[C@H](CCCNC(=N)N)C(N)=O) [SEQ ID NO: 62],–,largely impaired,–
acetyl-FSRSLHSALGXrrrrrrrr-amide (Ac-FSRSLHSALG[Ahx][dR][dR][dR][dR][dR][dR][dR][dR]-NH2; SMILES CC(=O)N[C@@H](Cc1ccccc1)C(=O)N[C@@H](CO)C(=O)N[C@@H](CCCNC(=N)N)C(=O)N[C@@H](CO)C(=O)N[C@@H](CC(C)C)C(=O)N[C@@H](Cc1c[nH]cn1)C(=O)N[C@@H](CO)C(=O)N[C@@H](C)C(=O)N[C@@H](CC(C)C)C(=O)NCC(=O)NCCCCCC(=O)N[C@H](CCCNC(=N)N)C(=O)N[C@H](CCCNC(=N)N)C(=O)N[C@H](CCCNC(=N)N)C(=O)N[C@H](CCCNC(=N)N)C(=O)N[C@H](CCCNC(=N)N)C(=O)N[C@H](CCCNC(=N)N)C(=O)N[C@H](CCCNC(=N)N)C(=O)N[C@H](CCCNC(=N)N)C(N)=O) [SEQ ID NO: 63],–,largely impaired,–
acetyl-FSRSLHSLAGXrrrrrrrr-amide (Ac-FSRSLHSLAG[Ahx][dR][dR][dR][dR][dR][dR][dR][dR]-NH2; SMILES CC(=O)N[C@@H](Cc1ccccc1)C(=O)N[C@@H](CO)C(=O)N[C@@H](CCCNC(=N)N)C(=O)N[C@@H](CO)C(=O)N[C@@H](CC(C)C)C(=O)N[C@@H](Cc1c[nH]cn1)C(=O)N[C@@H](CO)C(=O)N[C@@H](CC(C)C)C(=O)N[C@@H](C)C(=O)NCC(=O)NCCCCCC(=O)N[C@H](CCCNC(=N)N)C(=O)N[C@H](CCCNC(=N)N)C(=O)N[C@H](CCCNC(=N)N)C(=O)N[C@H](CCCNC(=N)N)C(=O)N[C@H](CCCNC(=N)N)C(=O)N[C@H](CCCNC(=N)N)C(=O)N[C@H](CCCNC(=N)N)C(=O)N[C@H](CCCNC(=N)N)C(N)=O) [SEQ ID NO: 64],–,largely impaired,–
